Results published in patent US5837728A, “9-cis retinoic acid esters and amides and uses thereof” (priority 1995, dated 1998).

How the values were obtained:
[1] = test system: pseudocomedone (utriculus) of the rhino mouse; assay: Topical rhino mouse pseudocomedone (utriculus) reduction assay; format: in vivo; design: Utriculus reduction (Table 1) / Utriculus reduction (Table 3): key to the marks not given beside the values; conditions: for Utriculus reduction (Table 1): 0.1% concentration, once daily 5 days/week for two weeks; for Utriculus reduction (Table 3): concentration 0.1 (unit not given); for Utriculus Reduction (Table 7): two weeks
Description: A topical assay to test for pseudocomedone (utriculus) reduction in the rhino mouse is conducted.
Each test compound and a vehicle control is applied topically to the dorsal trunk of the rhino mouse. The utriculus diameters are measured with a ocular micrometer. […] Kligman, et al., The Effect on Rhino Mouse Skin of Agents which Influence Keratinization and Exfoliation, J. Invest. Derm. […] Van Scott, Experimental Animal Integumental Models for Screening Potential Dermatologic Drugs, In Pharmacology of the Skin, eds. […] Mann, Hair Loss and Cyst Formation in Hairless and Rhino Mutant Mice, Anat. Rec. […] Mezick, et al., Topical and Systemic Effects of Retinoids on Horn-Filled Utriculus Size in the Rhino Mouse. A Model to Quantify Antikeratinizing Effects of Retinoids, J. Invest. Derm. […] Mezick, et al., Anti-Acne Activity of Retinoids in the Rhino Mouse, In Models in Dermatology, eds.
(§1) The dorsal trunk of the rhino mouse is the test site. Each test compound is dissolved in alcohol:propylene glycol (70:30, v:v) or other suitable vehicle and topically applied (0.1 ml) to the dorsal trunk once daily, five consecutive days/week for two weeks. Also, administration may be oral (p.o.) in a suitable vehicle. Following treatment, the animals are sacrificed by cervical dislocation. The treated dorsal trunk skin is removed from the animal and placed into 0.5% acetic acid for up to 18 hours at approximately 4° C. After this, the epidermis with the acne cysts is separated from the underlying dermis. The sheets of epidermis are processed by routine methods to permanent whole mounts for microscopic examination. Also, full-thickness samples may be taken, stained (H&E), and examined by light microscopy.
The utriculus diameters are measured with an ocular micrometer to compare effects of test compounds to vehicle control and/or reference compound on cyst reduction. Light microscopy is used to determine effects on cell differentiation.
Another topical assay is conducted following the procedure described above.
Each test compound and a vehicle control was applied topically to the dorsal trunk of the rhino mouse. The utriculus diameters are measured with a ocular micrometer. […] Kligman, et al., J. Invest. […] Van Scott, Pharmacology of the Skin, eds. […] Mann, Anat. […] Mezick, et al, J. Invest. […] Mezick et al., Models in Dermatology, eds.
as §1, with “(70:30,v:v)” for “(70:30, v:v)”, “weeks.” for “weeks. Also, administration may be oral (p.o.) in a suitable vehicle.”, “"acne cysts"” for “acne cysts”, “are” for “may be”, “(H&E)” for “(H&E),”, “microscope.” for “microscopy.”

[2] = test system: skin (inner forearm, cheek); assay: Topical assay for comparative dermal irritation in human subjects; format: in vivo, human (patients); conditions: for Irritant reactions, inner forearm: first test, 0.025% solution; for Irritant reactions, inner forearm / Irritant reaction, inner forearm: twice daily for ten days; for Irritant reaction, inner forearm: second test, one subject of four reacted; for Irritant reaction, inner forearm / Irritation of the cheeks: 0.075% solution; for Irritation of the cheeks: third test, twice daily, six days
Description: 2-(9-cis-retinoyloxy)-4-methoxyacetophenone is evaluated in a study of its potential to produce dermal irritation. Comparisons are made of tretinoin, isotretinoin, 2-(9-cis-retinoyloxy)-4-methoxyacetophenone, and the vehicle solution.
In the first test, four solutions are used. The control consists of vehicle solution, namely a solution of 60% by volume ethanol and 40% by volume polyethylene glycol. The other three solutions are 0.025% solutions of tretinoin, isotretinoin, or 2-(9-cis-retinoyloxy)-4-methoxyacetophenone in 60% by volume ethanol and 40% by volume polyethylene glycol. Four patients paint two saturated cotton swabs of each of the four solutions on four different areas of the inner forearm, twice daily for ten days.
In the second test, four other solutions are used. The control consists of vehicle solution, namely a solution of 90% by volume ethanol and 10% by volume polyethylene glycol. The other three solutions are 0.075% solutions of tretinoin, isotretinoin, or 2-(9-cis-retinoyloxy)-4-methoxyacetophenonein 90% by volume ethanol and 10% by volume polyethylene glycol. Four patients paint two saturated cotton swabs of each of the four solutions on four different areas of the inner forearm, twice daily for ten days. Only one subject experiences an irritant reaction. […] By day nine, both areas are still reacting, the tretinoin area more intensely than the isotretinoin area. There is no reaction in either the 2-(9-cis-retinoyloxy)-4-methoxyacetophenone or the control areas.
In the third test, three solutions are used. The three solutions are 0.075% solutions of tretinoin, isotretinoin, or 2-(9-cis-retinoyloxy)-4-methoxyacetophenone in 90% by volume ethanol and 10% by volume polyethylene glycol. Four patients paint two saturated cotton swabs of the 2-(9-cis-retinoyloxy)-4-methoxyacetophenone solution twice daily on one cheek of their faces. To the other cheek they apply two saturated cotton swabs of either tretinoin or isotretinoin.
The tests are carried out in double-blind fashion, that is, neither the subjects nor the investigator know the contents of the solutions during the study.
Clinical assessments are made daily of the subjects cheeks. All subjects develop irritant reactions by the third or fourth day of the study.

sebaceous gland = assay: Oral hamster sebaceous gland reduction assay; format: in vivo, male Syrian golden hamsters; design: key to the marks not given beside the values; conditions: 32 mg/kg
Description: An oral assay for hamster sebaceous gland reduction is conducted.
Hamsters are dosed orally with the test compound and vehicle alone. The reduction in sebaceous gland size is estimated microscopically in relation to the control. The assay is unique and proprietary to Ortho Pharmaceutical Corp. and is based upon the work of Plewig et al. (1977) and Gomex et al. (1980). Plewig, et al., Hamster Ear Model for Sebaceous Glands, J. Invest. Derm. 68: 171-176 (1977). Gomez, et al., Effect of 13-cis-Retinoic Acid on the Hamster Flank Organ, J. Invest. Derm. 74: 392-397 (1980).
For oral (p.o.) studies, male Syrian golden hamsters are […] at 5 ml/kg, once daily, five consecutive days/week for two or three weeks. Modified but similar dosing schedules could be used. Control hamsters are dosed with vehicle alone at 5 ml/kg. Following final treatment (up to 72 hours), the hamsters are sacrificed in a CO2 atmosphere. Samples of each test site are placed into 10% buffered formalin and histologically prepared. Serial sections of each sample are stained (H&E) and examined microscopically.
The reduction in sebaceous gland size is estimated microscopically in relation to the control treated sites. To quantify sebaceous gland size, cross-sectional areas are measured with an image analyzer system.

| SMILES | Utriculus reduction (Table 1) [1] | Utriculus reduction (Table 3) [1] | Irritant reactions, inner forearm [2] | Irritant reaction, inner forearm [2] | Irritation of the cheeks [2] | Sebaceous gland reduction (sebaceous gland) | Utriculus Reduction (Table 7) ([1]; dose 0.0005%) | Utriculus Reduction (Table 7) ([1]; dose 0.005%) | Utriculus Reduction (Table 7) ([1]; dose 0.05%) |
| --- | --- | --- | --- | --- | --- | --- | --- | --- | --- |
| COc1ccc(C(=O)COC(=O)/C=C(C)/C=C/C=C(C)\C=C\C2=C(C)CCCC2(C)C)cc1 [Compound 2, 2-(9-cis-retinoyloxy)-4'-methoxyacetophenone] | +++ | +++ | No irritant reactions occur | no reaction | slightly irritated or not irritated at all | +++ | – | – | – |
| CC1=C(/C=C/C(C)=C/C=C/C(C)=C/C(=O)O)C(C)(C)CCC1 [all-trans-retinoic acid, reference compound] | ++ | ++ | No irritant reactions occur | On day two, the tretinoin area begins reacting with redness and peeling | reactions which are so intense with redness and peeling that all subjects discontinue application on or before the sixth day | +++ | 34.1 | 49.9 | 72.8 |
